Source: PMC9179882 (Cancers, 2022)

Legend:
[1] = tested on: 5′ETS (DNA, G4) GGGGGGCGGGTGGTTGGG; assay: UV-vis titration at 265 nm; conditions: 100 mM KCl, 10 mM potassium phosphate; pH 7.0, 25 °C; 5 µM DNA; GA to 1:20 DNA:GA
[2] = tested on: SW480 cells; assay: Cell cycle analysis by propidium iodide flow cytometry; type: cell-based, human; conditions: SW480, GA IC50 for 24 h
Experimental: Cell cycle analyses were carried out by flow cytometry with propidium iodide (PI) (P4864, Merck, Darmstadt, Germany). Cells (10^6) were seeded into 10 cm culture dishes and treated with GA IC50 for 24 h or with the vehicle DMSO as control. Cells were then fixed with ice-cold 70% ethanol on ice and stained with 0.04 mg/mL PI and 0.1 mg/mL ribonuclease A (19101, Qiagen, Hilden, Germany). Cell cycle distribution was determined by an analytical DNA flow cytometer (FACSVerse, BD Biosciences) with instrument settings on low mode and FlowJo software v10.
GA is widely present in the plant kingdom and largely found in different food sources. According to its cytotoxic activity (shown above), cell cycle analysis was performed on SW480 cells by FACS with propidium iodide staining (Figure 1C). After GA IC50 treatment for 24 h, the frequency of cells at different stages of the cell cycle changed with respect to non-treated cells (45.34% of cells at G1, 34.16% at S, 7.65% at G2/M). […] To explore this hypothesis, we determined the intracellular localization of nucleolar proteins by immunofluorescence of SW480 cells treated with GA IC50 for 6 h because we had previously observed that some DNA-binding compounds affect nucleolar organization. In particular, we analyzed three proteins that are indicative of nucleolus status, such as nucleolin (NCL), fibrillarin (FBL), and Pol I catalytic subunit A (POLR1A) (Figure 1D).

[3] = tested on: CMYC (CD and UV-vis oligonucleotide) (DNA, G4) TGGGGAGGGTGGGGAGGGTGGGGAAGG; assay: circular dichroism; conditions: 100 mM KCl, 10 mM potassium phosphate; pH 7.0, 25 °C; 10 µM DNA, 100 µM GA; positive band decreased, no induced CD
[4] = tested on: CMYC G4; assay: PCR-stop assay, CMYC G4; type: biochemical; conditions: CMYC G4 sequence, GA 0-100 µM
[5] = tested on: 5′ETS (DNA, G4) GGGGGGCGGGTGGTTGGG; assay: circular dichroism; conditions: 100 mM KCl, 10 mM potassium phosphate; pH 7.0, 25 °C; 10 µM DNA, 100 µM GA; positive band decreased, no induced CD
[6] = molecular target: CMYC G4; assay: UV-vis titration, CMYC G4; type: binding; conditions: UV-vis titration at 265 nm, CMYC G4, 25 °C, pH 7.0; read-out: dissociation constant (Kd)
Experimental: (§1) G4-oligonucleotides listed in Supplementary Table S3 were purchased from Integrated DNA Technologies (Clareville, IA, USA). All of them were dissolved in G4s buffer (10 mM potassium phosphate, 100 mM potassium chloride at pH 7.0), heated at 95 °C for 10 min, slowly cooled to RT, and stored at 4 °C.
UV-vis absorption spectra were registered in a Varian Cary 50 UV-vis spectrophotometer at 25 °C. Concentration of the prefolded G4 DNA was 5 μM in G4s buffer (10 mM potassium phosphate buffer containing 100 mM potassium chloride at pH 7.0). Once the DNA was placed in the cuvette, a concentrated solution of GA (1 mM) was routinely added, 1 μL each time, with a Hamilton syringe and subsequently mixed with a pipette. After each addition of the GA solution, a UV-vis spectrum was recorded. In total, 10 μL of GA solution were added, with a final ratio of 1:20 G4 DNA:GA. For the blank, the same experiment with the successive additions was repeated, beginning just with buffer in the cuvette. […] Dissociation constants (Kd) were evaluated at 265 nm using the following equation:(1) A=Am+(Aml-Am)×(M+L+Kd)−(M+L+Kd)^2−4×M×L/2×M where A is the absorbance signal, Am is the signal of DNA in absence of the ligand, Aml is the signal of DNA in presence of the ligand, M is the total concentration of DNA, L is the total concentration of ligand, and Kd is the dissociation constant.

[7] = tested on: 5′ETS G4; assay: TOPRO3 fluorescent intercalator displacement (FID) assay, 5′ETS G4; type: binding; conditions: GA 10 µM, relative to GA-free control
Experimental: as §1
We used TOPRO3 (T3605, Thermo Scientific, MA, USA) as a fluorescent intercalator for FID assays. In particular, […] TOPRO3 was incubated with […] prefolded G4s and exposed to 10 µM GA in 96-well plates. TOPRO3 was excited at 642 nm, and emission profile was monitored between 650–800 nm with Infinite M200 Plate Reader (Tecan). Fluorescence values were calculated as follows: %Fluorescence = A/B × 100; where (A) is the fluorescence value in presence of GA, and (B) corresponds to the fluorescence value in GA-free controls. All assays were conducted in triplicate. The G4-oligonucleotides used in the current study are listed in Supplementary Table S3.

[8] = tested on: 5′ETS G4; assay: PCR-stop assay, 5′ETS G4; type: biochemical; conditions: 5′ETS G4 sequence, GA 0-100 µM

Q: `O=C(O)c1cc(O)c(O)c(O)c1` [Gallic acid, 3,4,5-trihydroxybenzoic acid] was tested. Which Kd [1] did it give?
A: 148 µM

Q: What about the “% of cells at G2/M” value ([2]; non-treated 7.65%) of the same compound?
A: 14.46%

Q: And the “% of cells at S” value ([2]; non-treated 34.16%)?
A: 43.82%

Q: What about the “% of cells at G1” value ([2]; non-treated 45.34%) of the same compound?
A: 28.30%

Q: And the binding [3]?
A: yes

Q: And the “concentration inhibiting accumulation of amplified products” value [4]?
A: 50 µM

Q: And the binding [5]?
A: yes

Q: What about the Kd [6] of the same compound?
A: 113 µM

Q: What about the TOPRO3 fluorescence percentage [7] of the same compound?
A: 84.2%

Q: And the “concentration inhibiting accumulation of amplified products” value [8]?
A: 100 µM
